Reference: patent US4336397A, “2,4-Dioxo-4-substituted-1-butanoic acid derivatives useful in treating urinary tract calcium oxalate lithiasis” (Merck & Co., Inc., priority 1980, dated 1982)

Molecular target: T1, pig liver glycolate oxidase (Sus scrofa, UniProt I3LVF1)
T1 construct: The enzyme was pig liver glycolate oxidase; from tissue; host or cells: pig liver
T1 sequence (I3LVF1 1-370): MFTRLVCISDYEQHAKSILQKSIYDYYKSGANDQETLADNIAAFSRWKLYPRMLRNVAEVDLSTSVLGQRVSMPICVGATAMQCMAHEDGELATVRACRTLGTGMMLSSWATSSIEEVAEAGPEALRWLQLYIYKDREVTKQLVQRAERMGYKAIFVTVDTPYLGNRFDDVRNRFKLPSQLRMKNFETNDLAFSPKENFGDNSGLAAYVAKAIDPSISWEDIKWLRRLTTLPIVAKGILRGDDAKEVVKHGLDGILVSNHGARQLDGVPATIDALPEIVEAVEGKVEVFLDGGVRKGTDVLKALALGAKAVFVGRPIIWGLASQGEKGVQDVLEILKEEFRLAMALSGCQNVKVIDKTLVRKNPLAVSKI
Assay: Glycolate Oxidase Enzyme Inhibition
Type: biochemical
Details: 25° C., 0.10 M phosphate buffer, pH 7.0, 3 mM EDTA; 2×10^-4 M sodium glycolate; initial rates 1 to 3 minutes, 600 nm
Method: The usefulness of the compounds of the present invention in treating urinary tract, especially renal, calcium oxalate lithiasis, is shown by the ability of those compounds to inhibit the glycolate oxidase enzyme. […] The activity of the enzyme, in turn, was measured by following the rate of reduction of sodium 2,6-dichlorophenyl-indophenol by sodium glycolate in the presence of the enzyme. The enzyme was pig liver glycolate oxidase. The reaction was followed spectrophotometrically at 600 nm. The assay was conducted at 25° C. in a 0.10 M phosphate buffer, pH 7.0, containing 3 mM EDTA. Initial substrate concentrations were 5×10^-5 M of […] and 2×10^-4 M of sodium glycolate. Reactions were initiated by the addition of enzyme. Initial rates during the period from 1 to 3 minutes after the addition of enzyme were recorded on a Beckman Acta M-VI spectrophotometer. One control was run simultaneously with three reactions, and all initial rates were adjusted to a common control rate. For further details of this procedure, see Randall et al., J. Med. Chem., 22, 6,612 (1979).

Compound | IC50
O=C(O)C(=O)CC(=O)c1ccc(C2CCCc3ccccc32)cc1 (centres unmarked) [4-[4-(1,2,3,4-tetrahydro-1-naphthalenyl)phenyl]-2,4-dioxo-1-butanoic acid] | 2.1 µM
O=C(O)C(=O)CC(=O)c1ccc(-c2ccc(Br)cc2)cc1 [4-[(4'-bromo-1,1'-biphenyl)-4-yl]-2,4-dioxo-1-butanoic acid] | 0.07 µM
O=C(O)C(=O)CC(=O)c1ccc(Cc2ccc(Cl)c(Cl)c2)cc1 [4-[4-(3,4-dichlorophenylmethyl)phenyl]-2,4-dioxo-1-butanoic acid] | 0.46 µM
CCCCCCCCCc1ccc(C(=O)CC(=O)C(=O)O)cc1 [2,4-dioxo-4-(4-nonylphenyl)-1-butanoic acid] | 0.67 µM
O=C(O)C(=O)CC(=O)c1ccc(C2CCCCC2)cc1 [4-(4-cyclohexylphenyl)-2,4-dioxo-1-butanoic acid] | 2.5 µM
